The values that follow come from patent publication US20120238615A1, “Alpha adrenergic receptor modulators” (Allergan, Inc., priority 2009, published 2012).

The target in this test is T1, alpha-2C (Homo sapiens, UniProt P18825).
T1 construct: expressed in transfected cells
T1 sequence (P18825 1-462): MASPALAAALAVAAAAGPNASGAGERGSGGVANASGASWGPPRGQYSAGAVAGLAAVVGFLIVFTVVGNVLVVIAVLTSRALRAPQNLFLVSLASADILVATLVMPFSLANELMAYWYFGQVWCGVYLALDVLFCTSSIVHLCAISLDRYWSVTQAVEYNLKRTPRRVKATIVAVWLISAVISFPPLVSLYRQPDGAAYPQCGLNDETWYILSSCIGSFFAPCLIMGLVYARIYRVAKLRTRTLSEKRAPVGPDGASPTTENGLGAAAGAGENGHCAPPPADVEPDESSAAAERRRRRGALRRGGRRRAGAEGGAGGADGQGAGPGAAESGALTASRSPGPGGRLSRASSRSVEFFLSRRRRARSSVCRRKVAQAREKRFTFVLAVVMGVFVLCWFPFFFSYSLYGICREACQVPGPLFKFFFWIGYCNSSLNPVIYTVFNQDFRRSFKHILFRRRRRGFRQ
Description: FLIPR calcium assay for alpha adrenergic activity. It is filed as cell-based. The following applies: cells expressing alpha-2C and G-protein (Gqi5 or G16); for EC50: fluo-4 calcium signal, agonist, read-out: Potency (nM) Alpha 2C (EC50); for efficacy Alpha 2C (relative efficacy compared to a standard full agonist, in parentheses): relative to norepinephrine. The source says: Compounds described herein were synthesized and tested for alpha adrenergic activity using a Fluorometric Imaging plate Reader (FLIPR) assay (Princen et al., 2003, Cytometry Part A. 51, pp. 35-45). Cells expressing the receptor of interest (alpha-2C) and a G-protein (Gqi5 or G16) are loaded with fluo-4, a calcium sensitive dye. After removal of excess dye by washing, the cells are placed in the FLIPR TETRA instrument. Baseline fluorescence readings are taken prior to addition of the compounds. Agonists will trigger the receptor to interact with the G-protein, leading to an increase in intracellular calcium. The increase in intracellular calcium causes an increase in the fluorescence of the cells, due to the presence of fluo-4. This fluorescence increase is recorded by the FLIPR TETRA. After the calcium transient signal has decreased towards baseline, the standard agonist norepinephrine is added. If the compound is an antagonist, an initial calcium signal will not be generated and the antagonist will prevent the generation of a calcium signal from norepinephrine. The level of fluorescence is compared to that of norepinephrine, and the EC50 of the compound determined by curve fitting. […] The compounds described herein activate alpha adrenergic receptors.

On to `Cc1cccc(NC2=NCCC2)c1Br` [Compound 1, N-(2-bromo-3-methyl-phenyl)-3,4-dihydro-2H-pyrrol-5-amine], for which the EC50 worked out at 663 nM and the “efficacy Alpha 2C (relative efficacy compared to a standard full agonist, in parentheses)” value (from here on “relative efficacy”) is “(1)”.
The corresponding values for `COc1c(Cl)cccc1NC1=NCCC1` [Compound 2, N-(3-chloro-2-methoxyphenyl)-3,4-dihydro-2H-pyrrol-5-amine] are 975 nM and “(1)”.
For `Cc1c(Cl)cccc1NC1=NCCC1` [Compound 3, N-(3-chloro-2-methylphenyl)-3,4-dihydro-2H-pyrrol-5-amine], in that order: 71 nM and “(1)”.
Turning to `Cc1cccc(NC2=NCCC2)c1Cl` [Compound 4, N-(2-chloro-3-methylphenyl)-3,4-dihydro-2H-pyrrol-5-amine], the EC50 turned out to be 635 nM and the “relative efficacy” value is “(1)”.
For `COc1c(C)cccc1NC1=NCCC1` [Compound 5, N-(2-methoxy-3-methylphenyl)-3,4-dihydro-2H-pyrrol-5-amine], the EC50 is 243 nM and the “relative efficacy” value is reported as “(1)”.
As to `Fc1c(Cl)cccc1NC1=NCCC1` [Compound 6, N-(3-chloro-2-fluorophenyl)-3,4-dihydro-2H-pyrrol-5-amine], the half-maximal effective concentration (EC50) was 26 nM and the “relative efficacy” value is given as “(1)”.
In the case of `COc1cccc(NC2=NCCC2)c1Br` [Compound 7, N-(2-bromo-3-methoxyphenyl)-3,4-dihydro-2H-pyrrol-5-amine], the EC50 was 32 nM and the “relative efficacy” value is “(1)”.
In the case of `COc1cccc(NC2=NCCC2)c1C` [Compound 8, N-(3-methoxy-2-methylphenyl)-3,4-dihydro-2H-pyrrol-5-amine], the EC50 came out at 186 nM and the “relative efficacy” value was “(1)”.
For `Cc1c(F)cccc1NC1=NCCC1` [Compound 9, N-(3-fluoro-2-methylphenyl)-3,4-dihydro-2H-pyrrol-5-amine], in that order: 756 nM and “(1)”.
As to `Cc1c(Br)cccc1NC1=NCCC1` [Compound 10, N-(3-bromo-2-methylphenyl)-3,4-dihydro-2H-pyrrol-5-amine], the EC50 was 288 nM and the “relative efficacy” value was “(1)”.
Regarding `Clc1ccccc1NC1=NCCC1` [Compound 11, N-(2-chlorophenyl)-3,4-dihydro-2H-pyrrol-5-amine], the EC50 came to 709 nM and the “relative efficacy” value is on record as “(1)”.
In the case of `Clc1cccc(Cl)c1NC1=NCCC1` [Compound 12, N-(2,6-dichlorophenyl)-3,4-dihydro-2H-pyrrol-5-amine], the EC50 was 44 nM and the “relative efficacy” value is “(1)”.
Take `Cc1ccccc1NC1=NCCC1` [Compound 13, N-(2-methylphenyl)-3,4-dihydro-2H-pyrrol-5-amine]: the EC50 was 743 nM and the “relative efficacy” value is recorded as “(1)”.
Turning to `FC(F)(F)c1ccccc1NC1=NCCC1` [Compound 14, N-[2-(trifluoromethyl)phenyl]-3,4-dihydro-2H-pyrrol-5-amine], the EC50 was determined as 796 nM and the “relative efficacy” value is given as “(1)”.
For the compound `Cc1cccc(C)c1NC1=NCCC1` [Compound 15, N-(2,6-dimethylphenyl)-3,4-dihydro-2H-pyrrol-5-amine], the EC50 was found to be 348 nM and the “relative efficacy” value is recorded as “(1)”.
On to `Cc1cccc(NC2=NCCC2)c1C` [Compound 16, N-(2,3-dimethylphenyl)-3,4-dihydro-2H-pyrrol-5-amine], for which the EC50 stood at 118 nM and the “relative efficacy” value is listed as “(1)”.

What is called EC50 is the midpoint of the concentration-response curve.
